Data reported in PubChem BioAssay (NCI).
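Protocol summary: plate cells (96-well), add compound at 5 concentrations, incubate 48 h, interpolate endpoints linearly. At the TGI there is no net growth.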

Assays:
Assay in all cases: NCI tumour cell line growth inhibition, 48 h
KM12 colon = system: KM12 colon
LXFL 529 NSCLC = system: LXFL 529 NSCLC
NCI-H23 lung = system: NCI-H23 lung
DMS 273 small cell lung = system: DMS 273 small cell lung
SNB-19 CNS = system: SNB-19 CNS
HL-60(TB) leukemia = system: HL-60(TB) leukemia
A498 renal = system: A498 renal
SF-268 CNS = system: SF-268 CNS
OVCAR-3 ovarian = system: OVCAR-3 ovarian
UACC-257 melanoma = system: UACC-257 melanoma
M14 melanoma = system: M14 melanoma
SK-MEL-28 melanoma = system: SK-MEL-28 melanoma
OVCAR-8 ovarian = system: OVCAR-8 ovarian
OVCAR-5 ovarian = system: OVCAR-5 ovarian
DMS 114 small cell lung = system: DMS 114 small cell lung
SF-539 CNS = system: SF-539 CNS
DLD-1 colon = system: DLD-1 colon
KM20L2 colon = system: KM20L2 colon
SNB-75 CNS = system: SNB-75 CNS
SK-MEL-2 melanoma = system: SK-MEL-2 melanoma
SF-295 CNS = system: SF-295 CNS
COLO 205 colon = system: COLO 205 colon
K-562 leukemia = system: K-562 leukemia
UACC-62 melanoma = system: UACC-62 melanoma
HCT-116 colon = system: HCT-116 colon
U251 CNS = system: U251 CNS
NCI-H522 lung = system: NCI-H522 lung
OVCAR-4 ovarian = system: OVCAR-4 ovarian
ACHN renal = system: ACHN renal
HCT-15 colon = system: HCT-15 colon
SK-MEL-5 melanoma = system: SK-MEL-5 melanoma
SN12C renal = system: SN12C renal
XF 498 CNS = system: XF 498 CNS
786-0 renal = system: 786-0 renal
UO-31 renal = system: UO-31 renal
SNB-78 CNS = system: SNB-78 CNS
RXF 393 renal = system: RXF 393 renal
A549 NSCLC = system: A549 NSCLC
CCRF-CEM leukemia = system: CCRF-CEM leukemia
IGROV1 ovarian = system: IGROV1 ovarian
CAKI-1 renal = system: CAKI-1 renal
EKVX NSCLC = system: EKVX NSCLC
NCI-H460 lung = system: NCI-H460 lung
MALME-3M melanoma = system: MALME-3M melanoma
LOX IMVI melanoma = system: LOX IMVI melanoma
HT29 colon = system: HT29 colon
SK-OV-3 ovarian = system: SK-OV-3 ovarian
SW-620 colon = system: SW-620 colon
TK-10 renal = system: TK-10 renal
NCI-H226 lung = system: NCI-H226 lung
HOP-62 NSCLC = system: HOP-62 NSCLC
HCC-2998 colon = system: HCC-2998 colon
HOP-92 NSCLC = system: HOP-92 NSCLC
M19-MEL melanoma = system: M19-MEL melanoma
HOP-18 NSCLC = system: HOP-18 NSCLC
MOLT-4 leukemia = system: MOLT-4 leukemia
RPMI-8226 leukemia = system: RPMI-8226 leukemia

Structure (SMILES): CCOC(=O)CC1=NC(=Nc2cc(Cl)ccc2Cl)SC1
- TGI (KM12 colon): > 100 µM
- TGI (LXFL 529 NSCLC): > 100 µM
- TGI (NCI-H23 lung): > 100 µM
- TGI (DMS 273 small cell lung): > 100 µM
- TGI (SNB-19 CNS): > 100 µM
- TGI (HL-60(TB) leukemia): > 100 µM
- TGI (A498 renal): > 100 µM
- TGI (SF-268 CNS): > 100 µM
- TGI (OVCAR-3 ovarian): > 100 µM
- TGI (UACC-257 melanoma): > 100 µM
- TGI (M14 melanoma): > 100 µM
- TGI (SK-MEL-28 melanoma): > 100 µM
- TGI (OVCAR-8 ovarian): > 100 µM
- TGI (OVCAR-5 ovarian): > 100 µM
- TGI (DMS 114 small cell lung): > 100 µM
- TGI (SF-539 CNS): > 100 µM
- TGI (DLD-1 colon): > 100 µM
- TGI (KM20L2 colon): > 100 µM
- TGI (SNB-75 CNS): > 100 µM
- TGI (SK-MEL-2 melanoma): > 100 µM
- TGI (SF-295 CNS): > 100 µM
- TGI (COLO 205 colon): > 100 µM
- TGI (K-562 leukemia): > 100 µM
- TGI (UACC-62 melanoma): > 100 µM
- TGI (HCT-116 colon): > 100 µM
- TGI (U251 CNS): > 100 µM
- TGI (NCI-H522 lung): > 100 µM
- TGI (OVCAR-4 ovarian): > 100 µM
- TGI (ACHN renal): > 100 µM
- TGI (HCT-15 colon): > 100 µM
- TGI (SK-MEL-5 melanoma): > 100 µM
- TGI (SN12C renal): > 100 µM
- TGI (XF 498 CNS): > 100 µM
- TGI (786-0 renal): > 100 µM
- TGI (UO-31 renal): > 100 µM
- TGI (SNB-78 CNS): > 100 µM
- TGI (RXF 393 renal): > 100 µM
- TGI (A549 NSCLC): > 100 µM
- TGI (CCRF-CEM leukemia): > 100 µM
- TGI (IGROV1 ovarian): > 100 µM
- TGI (CAKI-1 renal): > 100 µM
- TGI (EKVX NSCLC): > 100 µM
- TGI (NCI-H460 lung): > 100 µM
- TGI (MALME-3M melanoma): > 100 µM
- TGI (LOX IMVI melanoma): > 100 µM
- TGI (HT29 colon): > 100 µM
- TGI (SK-OV-3 ovarian): > 100 µM
- TGI (SW-620 colon): > 100 µM
- TGI (TK-10 renal): > 100 µM
- TGI (NCI-H226 lung): > 100 µM
- TGI (HOP-62 NSCLC): > 100 µM
- TGI (HCC-2998 colon): > 100 µM
- TGI (HOP-92 NSCLC): > 100 µM
- TGI (M19-MEL melanoma): > 100 µM
- TGI (HOP-18 NSCLC): > 100 µM

Structure (SMILES): CCc1ccccc1-n1c2nc(=O)n(C)c(=O)c-2nc2ccccc21
- TGI (KM12 colon): 34.2 µM
- TGI (LXFL 529 NSCLC): 24.8 µM
- TGI (NCI-H23 lung): 18.2 µM
- TGI (DMS 273 small cell lung): 22.1 µM
- TGI (SNB-19 CNS): 23.5 µM
- TGI (A498 renal): 32.5 µM
- TGI (SF-268 CNS): 24 µM
- TGI (OVCAR-3 ovarian): 6.79 µM
- TGI (UACC-257 melanoma): 18.6 µM
- TGI (M14 melanoma): 20.8 µM
- TGI (OVCAR-8 ovarian): 21.6 µM
- TGI (OVCAR-5 ovarian): 34.3 µM
- TGI (DMS 114 small cell lung): 14.2 µM
- TGI (SF-539 CNS): 27.7 µM
- TGI (DLD-1 colon): 45.2 µM
- TGI (SNB-75 CNS): 28.8 µM
- TGI (SK-MEL-2 melanoma): 39.1 µM
- TGI (SF-295 CNS): 24 µM
- TGI (COLO 205 colon): 12.5 µM
- TGI (K-562 leukemia): 31.8 µM
- TGI (UACC-62 melanoma): 5.15 µM
- TGI (HCT-116 colon): 25.8 µM
- TGI (U251 CNS): 32.8 µM
- TGI (NCI-H522 lung): 27.3 µM
- TGI (OVCAR-4 ovarian): 18.2 µM
- TGI (ACHN renal): 16.3 µM
- TGI (HCT-15 colon): 23.4 µM
- TGI (SK-MEL-5 melanoma): 16.8 µM
- TGI (SN12C renal): 26.6 µM
- TGI (XF 498 CNS): 22 µM
- TGI (786-0 renal): 30.5 µM
- TGI (UO-31 renal): 48.2 µM
- TGI (SNB-78 CNS): 38.5 µM
- TGI (RXF 393 renal): 30 µM
- TGI (A549 NSCLC): 27.6 µM
- TGI (CCRF-CEM leukemia): 39.3 µM
- TGI (IGROV1 ovarian): 35.4 µM
- TGI (CAKI-1 renal): 49.3 µM
- TGI (EKVX NSCLC): 24.6 µM
- TGI (NCI-H460 lung): 20.8 µM
- TGI (MALME-3M melanoma): 18.2 µM
- TGI (HT29 colon): 14.3 µM
- TGI (SK-OV-3 ovarian): > 100 µM
- TGI (SW-620 colon): 27.3 µM
- TGI (TK-10 renal): 35.4 µM
- TGI (MOLT-4 leukemia): 35.4 µM
- TGI (NCI-H226 lung): 36.4 µM
- TGI (RPMI-8226 leukemia): 58.7 µM
- TGI (HOP-62 NSCLC): > 100 µM
- TGI (HCC-2998 colon): 25.6 µM
- TGI (M19-MEL melanoma): 3.69 µM
- TGI (HOP-18 NSCLC): 25 µM
